# Source: patent US20260265267A1, “NOVEL COMPOUNDS WITH MTORC2-INHIBITORY ACTIVITY AND USES THEREOF” (Aliad Biopharma, priority 2023, published 2026)
# Tests used:
# mTORC2 = biological target: T1, mTORC2 (Homo sapiens, UniProt P42345); assay: mTORC2 inhibitory activity in HeLa cells (Akt Ser473 phosphorylation, Western blot); format: cell-based; conditions: for selective inhibition of mTORC2: 40 μM, versus mTORC1; for selective inhibition of mTORC2 / remaining activity at 40 µM: 9 hours; for remaining activity at 40 µM: read-out: pSer473-AKT/AKT (% control)
# T1 construct: the following experiments were conducted in HeLa cells; endogenous in cells; host or cells: HeLa
# Outline: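 HeLa cells treated with compounds at 40 μM for 9 hours, then lysed and analysed by Western blot with chemiluminescent detection. Phospho-Akt Ser473 signal normalised to total Akt and expressed as percent of DMSO vehicle control.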
# mTORC1 = biological target: T2, mTORC1 (Homo sapiens, UniProt P42345); assay: mTORC1 inhibitory activity in HeLa cells (p70S6K Thr389 phosphorylation, Western blot); format: cell-based; conditions: 9 hours; for remaining activity at 40 µM: read-out: pThr389-S6K/S6K (% control)
# T2 construct: the following experiments were conducted in HeLa cells; endogenous in cells; host or cells: HeLa
# Outline: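 HeLa cells treated with compounds at 40 μM for 9 hours, lysed in RIPA, and equal protein analysed by Western blot. Phospho-p70S6K (Thr389) signal normalized to total p70S6K and expressed as percent of DMSO vehicle control.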
# [1] = tested on: 5×FAD Alzheimer's disease model mice; assay: Y-maze test in 5×FAD mice (short-term memory); format: in vivo
# Experimental: In order to evaluate the efficacy of HN2210, HN2213, and HN2313 on Alzheimer's disease-related symptoms, specifically regarding 1) memory and cognitive impairment, 2) amyloid plaques, 3) neurofibrillary tangles (NFTs), and 4) brain inflammation, an in vivo efficacy assessment of HN2210, HN2213 and HN2313 was conducted using 5×FAD Alzheimer's disease model mice. The 5×FAD mice were purchased from Jackson Lab, USA (Cat #034840-JAX) and crossed once with C57bl6 mice to produce F1 heterozygous offspring (Het). The compound was administered via intraperitoneal injection to 6-month-old 5×FAD Het mice, followed by behavioral testing. The normal control mice, which were littermates of the 5×FAD Het mice, were aged to 6 months and received DMSO injection at the same volume.
# Specifically, the Y-maze test was performed using a Y-shaped structure maze made of black acrylic with each arm at a […], and light and a camera were installed on the ceiling, and we measured the number of entries for white mice to freely enter each arm while the surroundings were covered with a curtain. This procedure was used to analyze short-term memory. In order to adapt mice to the environment, they were acclimated to the experimental space for 30 minutes. The mice were placed at one end of the maze and allowed to move freely for 12 minutes. The test was conducted with observation periods divided into 8, 10, and 12 minutes. When all four paws of a mice entered an arm, it was considered as fully entered, and the number of entries into each arm without repetition was recorded. The number of entries into each of the three different arms was divided by the total number of entries into all arms minus 2, and expressed as a percentage.
# [2] = biological target: T3, mTOR(CD) protein and mLST8 protein (Homo sapiens, UniProt P42345+Q9BVC4); assay: mTOR(CD)-mLST8 binding assay (co-precipitation, Western blot); conditions: read-out: inhibition of the binding between mTOR(CD) and mLST8 proteins
# T3 construct: mTOR C-terminal domain (mTOR(CD), a.a. 2179-2549); made in house; host or cells: E. coli (mTOR(CD)); insect Sf9 cells (mLST8, used as a crude extract)
# Experimental: mLST8 binds to the mTOR C-terminal domain (mTOR(CD), a.a. 2179-2549). After binding to mTOR, mLST8 interacts with mSin1 and Rictor to complete the formation of the mTORC2 complex, serving as a scaffold. In order to evaluate the inhibitory activity of the compounds synthesized in Examples 1 to 70 on the binding between mLST8 protein and mTOR(CD) protein, the following mTOR(CD)-mLST8 binding assay was performed. Four types of compounds: HN2210, HN2213, HN2221 and HN2313 were used as the experimental target compounds.
# Specifically, mTOR(CD) protein was overexpressed in E. coli, labeled with biotin, and then partially purified. mLST8 protein was overexpressed in insect Sf9 cells to obtain mLST8 extract. mTOR(CD)-biotin and mLST8 extract were incubated at 4° C. to induce binding between mTOR(CD)-biotin and mLST8 proteins, and then the mTOR(CD)-biotin and mLST8 complex were co-precipitated using avidin-agarose beads. The relative amounts of precipitated mTOR(CD)-biotin and mLST8 proteins were measured by Western blot analysis, as shown in FIG. 4. Four types of compounds were added during the incubation process of the mTOR(CD)-biotin and mLST8 extract.
# [3] = 5 mg/kg, intraperitoneal, once daily, 14 days (FIG. 5)
SMILES,selective inhibition of mTORC2 (mTORC2),remaining activity at 40 µM (mTORC2) [%],effect on S6K Thr389 phosphorylation (mTORC1; 40 μM),remaining activity at 40 µM (mTORC1) [%],"Y-maze % alternation, % of the normal control level ([1]; 0.2 mg/kg, 14 days (FIG. 8a))","Y-maze % alternation, increase compared to 5×FAD-DMSO mice ([1]; 0.2 mg/kg, 14 days (FIG. 8a)) [fold]","Y-maze % alternation, % of the normal control level ([1]; 1 mg/kg, 14 days (FIG. 8a)) [%]","Y-maze % alternation, increase compared to 5×FAD-DMSO mice ([1]; 1 mg/kg, 14 days (FIG. 8a)) [fold]","Y-maze % alternation, % of the normal control level ([1]; 5 mg/kg, 14 days (FIG. 8a)) [%]","Y-maze % alternation, increase compared to 5×FAD-DMSO mice ([1]; 5 mg/kg, 14 days (FIG. 8a)) [fold]","Y-maze % alternation, % of the normal control level [1, 3] [%]","Y-maze % alternation, increase compared to 5×FAD-DMSO mice [1, 3] [fold]",inhibition at 4 µM [2] [%],inhibition at 40 µM [2] [%],increase in S6K Thr389 phosphorylation (mTORC1; 40 μM) [%],"inhibition at 40 µM (mTORC2; HeLa, 9 h, read-out: reduction in Akt Ser473 phosphorylation compared to the control group) [%]"
"O=C1c2cc(F)c(N3CCOCC3)cc2COc2cc3c(cc21)OCO3 [HN2210, 8-(morpholino)-9-fluoro[2]benzoxepino[3,4-f]-1,3-benzodioxol-11(6H)-one]",selectively inhibit mTORC2,43,no effect,107,approximately 85%,1.21,~82,1.17,~93,1.32,93,1.25,24,36,,
"O=C1c2cc(F)c(NCc3ccccc3)cc2COc2cc3c(cc21)OCO3 [HN2213, 8-(benzylamino)-9-fluoro[2]benzoxepino[3,4-f]-1,3-benzodioxol-11(6H)-one]",selectively inhibit mTORC2,51,,114,,,,,,,97,1.3,19,30,14,
"O=C1c2cc(F)c(NC3CCCC3)cc2COc2cc3c(cc21)OCO3 [HN2313, 8-(cyclopentylamino)-9-fluoro-[1,3]dioxolo[4′,5′:4,5]benzo[1,2-b]benzo[e]oxepin-11(6H)-one]",,80,,54,,,,,,,90,1.2,,34,,> 20
